From patent publication US20130005802A1, “TREATMENT OF WNT/FRIZZLED-RELATED DISEASES” (priority 2009, published 2013) come the findings set out here.

pIC50: −log10 of the molar value.

The test system of this assay is LEF/TCF transcription factor reporter (TOPFlash). As to the kind of experiment: TOPFlash reporter assay in HEK293 cells. The note with it: Homo sapiens, read-out: TopFlash assay: IC50. In kind it is cell-based. On the procedure:
To obtain a Frizzled1-GFP stable cell line (Fzd1GFP-U2OS), U2OS cells were transfected with pCS2ratFrizzled1-GFP and pLKO.1 (10:1 ratio by weight), using the Nucleofection transfection protocol from Amaxa, and stable receptor expressing clones were selected using 1.5 μg/mL puromycin in the culture medium. For generating TOPFlash stable cell lines, HEK293 cells were transfected with p8xTOPFlash, the Renilla luciferase plasmid, and pLKO.1 at a ratio by weight of 10:3:1 and stable clones selected using 1 μg/mL puromycin in the growth medium. pLKO.1 was used to confer puromycin resistance to the stable clones.
For the TOPFlash Luciferase assay the TOPFlash stable cells were seeded in 150 μL growing medium/well in 96-well plates at 100% confluency. Fifty microliters of conditioned medium containing the chemical compounds to be tested or DMSO were added to each well. After an 8 hr treatment, the cells were then washed once with PBS, and lysed with 80 μL MPER solution (Pierce, Rockford, Ill.). Thirty microliters of cell lysate were used for measuring luciferase activity in a 96-well plate reader (FluoStar Optima, BMG Labtech, Chicago, Ill.).
LEF/TCF transcription factor reporter (TOPFlash) assay is a general readout for canonical Wnt signaling pathways. […] A Renila luciferase plasmid was also generated to serve as an internal control.
The average TOPFlash reporter activity of Wnt3A plus DMSO treatment was set as 100%, and the relative reporter activity of Wnt3A plus the indicated concentration of niclosmide was calculated and plotted.
The compounds shown in Table 2 were purchased from Sigma-Aldrich (St. Louis, Mo.) or Chembridge (San Diego, Calif.). The activity of each of the compounds as a negative modulator of the Wnt/Frizzled signaling pathway was examined using the Top-flash assay, as described above.

Turning to `Nc1ccc(NC(=O)c2cc(Cl)ccc2O)c(Cl)c1` [Compound 1-2, N-(4-amino-2-chlorophenyl)-5-chloro-2-hydroxybenzamide], the pIC50 was less than 4.90.
Under `O=C(Nc1ccc([N+](=O)[O-])cc1)c1cc(Cl)ccc1O` [Compound 1-4, 5-chloro-2-hydroxy-N-(4-nitrophenyl)benzamide] stands more than 6.00.
As for `COc1ccc(Cl)cc1C(=O)Nc1ccc([N+](=O)[O-])cc1Cl` [Compound 1-6, Benzamide, 5-chloro-N-(2-chloro-4-nitrophenyl)-2-methoxy-], the pIC50 is less than 4.90.
Under `O=C(Nc1ccc([N+](=O)[O-])cc1Cl)c1cccc(Cl)c1` [Compound 1-7, Benzamide, 3-chloro-N-(2-chloro-4-nitrophenyl)-] stands less than 4.90.
The figure for `O=C(Nc1cc(Cl)cc(Cl)c1O)c1c(O)c(Cl)cc(Cl)c1Cl` [Compound 2-1, Oxyclozanide] is less than 4.90; for `O=C(Nc1ccc(Oc2ccc(Cl)cc2)c(Cl)c1)c1cc(I)cc(I)c1O` [Compound 2-2, Rafoxanide] it is less than 4.90.
Under `Cc1cc(C(C#N)c2ccc(Cl)cc2)c(Cl)cc1NC(=O)c1cc(I)cc(I)c1O` (stereo not shown) [Compound 2-3, Closantel] stands less than 4.90.
Take `O=C(Nc1ccc(Br)cc1)c1cc(Br)cc(Br)c1O` [Compound 2-4, 3,5-dibromo-N-(4-bromophenyl)-2-hydroxybenzamide]: the pIC50 was less than 4.90.
The figure for `O=C(Nc1ccc(NS(=O)(=O)c2ccc(Cl)cc2)cc1Cl)c1cc(Cl)ccc1O` [Compound 3-1, 5-chloro-N-(2-chloro-4-{[(4-chlorophenyl)sulfonyl]amino}phenyl)-2-hydroxybenzamide] is less than 4.90; for `Cc1cc([N+](=O)[O-])c(Cl)cc1NC(=O)c1ccccc1O` [Compound 3-2, N-(5-chloro-2-methyl-4-nitrophenyl)-2-hydroxybenzamide] it is more than 6.00; for `O=C(Nc1ccc([N+](=O)[O-])cc1Cl)c1cc(Cl)cc(Cl)c1O` [Compound 3-3, 3,5-dichloro-N-(2-chloro-4-nitrophenyl)-2-hydroxybenzamide] it is 4.90 to 6.00.
Under `O=C(Nc1ccc([N+](=O)[O-])cc1Cl)c1cc(Br)ccc1O` [Compound 3-4, 5-bromo-N-(2-chloro-4-nitrophenyl)-2-hydroxybenzamide] stands more than 6.00; under `O=C(Nc1ccc([N+](=O)[O-])cc1)c1cc(Br)ccc1O` [Compound 3-5, 5-bromo-2-hydroxy-N-(4-nitrophenyl)benzamide], more than 6.00.
As to `O=C1c2ccc([N+](=O)[O-])cc2C(=O)N1c1cc(Cl)ccc1O` [Compound 3-6, 2-(5-chloro-2-hydroxyphenyl)-5-nitro-1H-isoindole-1,3(2H)-dione], the pIC50 was less than 4.90.
Under `O=C(Nc1ccc([N+](=O)[O-])cc1Br)c1ccccc1O` [Compound 3-7, N-(2-bromo-4-nitrophenyl)-2-hydroxybenzamide] stands 4.90 to 6.00; under `O=C(Nc1ccc([N+](=O)[O-])cc1Cl)c1ccccc1O` [Compound 3-8, N-(2-chloro-4-nitrophenyl)-2-hydroxybenzamide], 4.90 to 6.00.
The figure for `COc1cc([N+](=O)[O-])ccc1NC(=O)c1cc(Cl)ccc1O` [Compound 3-9, 5-chloro-2-hydroxy-N-(2-methoxy-4-nitrophenyl)benzamide] is more than 6.00.
Under `O=C(Nc1cc(Cl)ccc1O)c1ccc([N+](=O)[O-])cc1` [Compound 3-10, N-(5-chloro-2-hydroxyphenyl)-4-nitrobenzamide] stands less than 4.90; under `CS(=O)(=O)c1ccc(NC(=O)c2cc(Cl)ccc2O)c(Cl)c1` [Compound 3-11, 5-chloro-N-[2-chloro-4-(methylsulfonyl)phenyl]-2-hydroxybenzamide], less than 4.90.
